Test results from patent US20070161697A1, “Hydrazide type compounds and the use thereof in pharmaceutical compositions for the treatment of cardiovascular diseases” (priority 2004, published 2007).
Where a name gives a salt, the structure may show the parent alone. Read-outs that look alike come from different tables or passages of the source.

Columns and labels:
THP1 cells [1] = assay: Inhibition of binding and accumulation of cyanine 3-marked LDLox as lipid vesicles in differentiated THP1 macrophage cells; format: cell-based; conditions: Homo sapiens, 2.5 μM
Description: The culture medium may be replaced every two days.
In the present example, the accumulation of lipid vesicles within the cell was measured using THP1 cells following fixation with paraformaldehyde in PBS medium using a solution containing a fluorescent marker of the Oil Red O type in order to visualise the vesicles. The image of the cells rich in vesicles was analysed using a microscope ecqluipped with a CCD camera and software necessary for the analysis.
The medium was replaced every 2-3 days.
The differentiated THP-1 were subsequently incubated with LDLox coupled with cyanine-3 (1.5 μg/ml) in the presence or absence of the molecule CGP02-01 (concentrations of between 10^−5M and 3.1.6 10^−10M) for 24 hours at 37° C., 5% CO2. […] Each image was analysed and quantified with the MetaMorph software (Universal Imaging).

THP1 cells [2] = assay: as above; format: cell-based; conditions: 3 μg/ml oxLDL-cyanine 3, 25 hours, different concentrations, FIG. 7
Wistar rats [3] = assay: Circulating triglycerides, rats on dietary regimen rich in fructose; format: in vivo; conditions: oral
Description: Secondly, the activity of the compound CGP 02-01 was studied using a reference rat-fructose model. Groups of Wistar rats (n=12) were subjected for 3 weeks to a dietary regimen containing […] of fructose. […] Groups of rats subsequently received by forced feeding 50 mg/kg of the compound CGP 02-01 dissolved in a 2% tween solution prepared in methylcellulose. The blood samples for the biochemical analyses were performed after 1, 2 and 3 weeks. Independent groups of rats wee treated under the same conditions with metformin hydrochloride at a dose of 50 mg/kg. The metformin served as a reference in this metabolic syndrome model. Assay of serum triglycerides may be performed enzymatically using the commercially available kit. One may use kits from Biomérieux for example (ref. 61.238). In summary, the triglycerides are treated with a lipase in order to generate fatty acids. In the presence of ATP, the glycerol is transformed by glycerokinase into glycerol 3 phosphate. The glycerol 3 phosphate is subsequently transformed into dihydroxyacetone in generating oxygenated water (H202) which may be detected by formation of quinoneimine in the presence of parachlorophenol, amino-4-antipyrin and peroxidase. The intensity of the quinoneimine coloration is subsequently measured at 505 nm. This coloration is proportional to the quantity of triglycerides present in the sample.

Wistar rats [4] = assay: Insulin in plasma, rats on dietary regimen rich in fructose; format: in vivo; conditions: 50 mg/kg oral
Description: Secondly, the activity of the compound CGP 02-01 was studied using a reference rat-fructose model. Groups of Wistar rats (n=12) were subjected for 3 weeks to a dietary regimen containing […] of fructose. […] Groups of rats subsequently received by forced feeding 50 mg/kg of the compound CGP 02-01 dissolved in a 2% tween solution prepared in methylcellulose. The blood samples for the biochemical analyses were performed after 1, 2 and 3 weeks. Independent groups of rats wee treated under the same conditions with metformin hydrochloride at a dose of 50 mg/kg. The metformin served as a reference in this metabolic syndrome model. Assay of insulin in plasma may be performed by radioimmunological assay using commercially available kits comprising specific anti-insulin antibodies of mice or rats. One may for example use the rat/mouse ELISA kits, Linco research (ref. EZRMI-13K).

Wistar rats [5] = assay: Total cholesterol in plasma, rats on dietary regimen rich in fructose; format: in vivo; conditions: 50 mg/kg oral, 3 weeks of treatment
Description: Secondly, the activity of the compound CGP 02-01 was studied using a reference rat-fructose model. Groups of Wistar rats (n=12) were subjected for 3 weeks to a dietary regimen containing […] of fructose. Under these conditions, the rats develop a metabolic syndrome comprising hyperglycaemia, hyperinsulinaemia, hypercholesterolaemia and hypertriglyceridaemia. Groups of rats subsequently received by forced feeding 50 mg/kg of the compound CGP 02-01 dissolved in a 2% tween solution prepared in methylcellulose. The blood samples for the biochemical analyses were performed after 1, 2 and 3 weeks. Independent groups of rats wee treated under the same conditions with metformin hydrochloride at a dose of 50 mg/kg. The metformin served as a reference in this metabolic syndrome model. The circulating total cholesterol may be measured by enzymatic assay using the commercially available kit. This assay may for example use an enzymatic sequence of the cholesterol-esterase/cholesteroloxydase/chromogenic peroxidase type. In summary, the total esterified cholesterol is transformed into free cholesterol and fatty acid by the action of cholesterol esterase. The non-esterified cholesterol is subsequently measured by the formation of quinoeimine in the presence of cholesterol oxidase and peroxidise. The intensity of the quinoneimine coloration is proportional to the quantity of cholesterol present in the sample.

[6] = THP-1, cells expressing the scavenger CD36, lipoproteins marked with cyanine 3, read-out: Inhibition of accumulation of LDLox in (%)
[7] = THP-1 cells, 24 hours, read-out: Inhibition at 2.5 μM on THP-1 cells (24 hours)

Row | SMILES | inhibition at 2.5 µM (THP1 cells [1]; [6]) [%] | inhibition at 2.5 µM (THP1 cells [1]; [7]) [%] | further results
1 | COc1cc(O)c(/C=N/NC(=O)c2ccccc2CCc2ccccc2)c(OC)c1 [CGP02-05, 2-phenethylbenzoic acid (2-hydroxy-4,6-dimethoxy-benzylidene)-hydrazide] | 77 | 77 | 
2 | COc1cc(O)c(/C=N/NC(=O)CC2Sc3ccccc3NC2=O)c(OC)c1 (centres unmarked) [CGP02-10] | 52 | 52 | 
3 | CCN(CC)c1ccc(/C=N/NC(=O)c2ccc(OC)c(OC)c2)c(O)c1 [CGP02-17, 3,4-dimethoxybenzoic acid (4-diethylamino-2-hydroxy-benzylidene)-hydrazide] | 88 | 88 | 
4 | COc1cc(O)c(/C=N/NC(=O)c2ccc(C)s2)c(OC)c1 [CGP02-03, N′-[(1E)-(2-hydroxy-4,6-dimethoxyphenyl)methylene]-5-methylthiophene-2-carbohydrazide] | 82 | 82 | Inhibition of formation of foamy cells (THP1 cells [2]): inhibition of formation of foamy cells
5 | O=C(N/N=C/c1cc(Br)cc(Br)c1O)c1cc2ccccc2s1 [CGP02-18, benzo[b]thiophene-2-carboxylic acid (3,5-dibromo-2-hydroxy-benzylidene)-hydrazide] | 78 | 78 | 
6 | COc1cc(O)c(/C=N/NC(=O)c2ccc(C(F)(F)F)cc2)c(OC)c1 [CGP02-16, 4-trifluoromethylbenzoic acid (2-hydroxy-4,6-dimethoxy-benzylidene)-hydrazide] | 77 | 77 | 
7 | Cc1nn(-c2ccccc2)c(C)c1/C=N/NC(=O)c1ccc([N+](=O)[O-])o1 [CGP02-12] | 43 | 43 | 
8 | COc1cc(O)c(/C=N/NC(=O)c2ccccc2Oc2ccccc2)c(OC)c1 [CGP02-11, 2-phenoxy-benzoic acid (2-hydroxy-4,6-dimethoxybenzylidene)-hydrazide] | 44 | 44 | 
9 | COc1cc(O)c(/C=N/NC(=O)c2ccco2)c(OC)c1 [CGP02-07, 2-furancarboxylic acid (2-hydroxy-4,6-dimethoxy-benzylidene)-hydrazide] | 63 | 63 | 
10 | COc1cc(O)c(/C=N/NC(=O)c2c(F)cccc2F)c(OC)c1 [CGP02-13, 2,6-difluorobenzoic acid (2-hydroxy-4,6-dimethoxybenzylidene)-hydrazide] | 68 | 68 | 
11 | COc1cc(O)c(/C=N/NC(=O)Cc2c[nH]c3ccccc23)c(OC)c1 [CGP02-08, (1H-indol-3-yl) acetic acid (2-hydroxy-4,6-dimethoxybenzylidene)-hydrazide] | 58 | 58 | 
12 | CN(C)C(=N)N=C(N)N [Metformin, metformin hydrochloride, reference compound] |  |  | Plasma triglyceride level (Wistar rats [3]; 50 mg/kg, 3 weeks, control 1.39±0.13): 1.21 ± 0.08 g/L; Effect on plasma triglyceride level (Wistar rats [3]; same conditions): does not have any effect; Variation (reduction) of insulin level (Wistar rats [4]): 16.2%; Reduction in total cholesterol (Wistar rats [5]): 16%; Plasma total cholesterol level (Wistar rats [5]; control 0.79±0.05): 0.66 ± 0.02 g/L
13 | COc1cc(O)c(/C=N/NC(=O)c2ccc(N(C)C)cc2)c(OC)c1 [CGP02-04] | 61 | 61 | 
14 | COc1cc(O)c(/C=N/NC(=O)C=Cc2ccco2)c(OC)c1 (stereo in doubt) [CGP02-02, (2Z)-3-(2-furyl)-N′-[(1E)-(2-hydroxy-4,6-dimethoxyphenyl)methylene] acrylohydrazide] | 64 | 64 | Inhibition of formation of foamy cells (THP1 cells [2]): inhibition of formation of foamy cells
15 | CCC(=O)Nc1cccc(C(=O)N/N=C/c2c(O)cc(OC)cc2OC)c1 [CGP02-06] | 71 | 71 | 
